Read-outs that look alike come from different tables or passages of the source.
Columns and labels:
[1] = molecular target: human Adenosine A3 receptor (Homo sapiens (Human), UniProt P0DMS8); test: Adenosine receptor TR-FRET binding assay (A3); conditions: inhibition of binding of 100 nM CA200645, CHO cell membranes
Outline: (§1)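 TR-FRET displacement of fluorescent XAC (CA200645; 30 nM for A2b, 100 nM for A1/A2a/A3) from terbium-labelled human receptors in CHO membranes, 2 h at room temperature with saponin, 1% DMSO. Non-specific binding with 10 μM XAC; 665/620 nm ratio; Ki from IC50 by Cheng–Prusoff.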

[2] = test system: CD8+T cells in human whole blood; test: Measurement of pCREB in CD8+T cells in human whole blood; assay type: cell-based; conditions: 3 μM NECA, rolipram
Outline: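 Heparinised human whole blood pre-incubated 20 min at 37 °C with serially diluted A2a antagonists plus rolipram, then stimulated 60 min with 3 μM NECA (final). After fixation and red-cell lysis, white cells were permeabilized and stained for phospho-CREB and CD8; pCREB in CD8+ T cells measured by flow cytometry.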

[3] = molecular target: human Adenosine A2a receptor (Homo sapiens (Human), UniProt P29274); test: Adenosine receptor TR-FRET binding assay (A2a); conditions: inhibition of binding of 100 nM CA200645, CHO cell membranes
Outline: as §1

[4] = molecular target: human Adenosine A2b receptor (Homo sapiens (Human), UniProt P29275); test: Adenosine receptor TR-FRET binding assay (A2b)
Outline: as §1

[5] = test system: immature monocyte-derived dendritic cells (MoDC); test: MoDC pCREB assay; assay type: cell-based, human; conditions: pCREB in immature MoDC, 1 μM NECA, rolipram
Experimental: Monocytes are isolated from human whole blood using CD14 microbeads (Miltenyi Biotec 130-050-201) and differentiated to immature monocyte-derived dendritic cells (MoDC) by culture for 5 days in Mo-DC Differentiation Medium (Miltenyi Biotec 130-094-812). MoDCs are seeded into fresh medium into U bottomed 96 well culture plates and pre-incubated at 37° C. with serial dilutions of A2A/B antagonists for 15 min. At the same time the cells are co-incubated with the phosphodiesterase inhibitor rolipram (final concentration of 20 µM) to amplify the subsequent pCREB response. Adenosine receptor agonist NECA is then added at 1 μM final concentration, leading to an increase in CREB phosphorylation. Following a 45 min incubation at 37° C., the cells are fixed, permeabilized and stained with directly conjugated fluorescent antibodies to phospho-CREB (Alexa Fluor 488), CD209 (PerCP-Cy5.5) and CD86 (APC). Samples are analysed by FACS to measure fluorescence in corresponding channels, and also forward and Side scatter. The population of CD209+/CD86− low cells corresponding to immature dendritic cells is gated for analysis of pCREB levels.
Approximately 5% of the analysed cells are positive for detection of pCREB in the absence of agonist stimulation, representing the background signalling of all pathways upstream of CREB. Following NECA stimulation this is increased to ˜80% pCREB+ve, and this increase is essentially fully reversible by A2B or dual A2A/B antagonists.
IC50 is represented as the point of inflection of a sigmoidal curve

[6] = molecular target: human Adenosine A1 receptor (Homo sapiens (Human), UniProt P30542); test: Adenosine receptor TR-FRET binding assay (A1); conditions: inhibition of binding of 100 nM CA200645, CHO cell membranes
Outline: as §1

[7] = TR-FRET, inhibition of binding of 30 nM CA200645, CHO cell membranes

Sequence of human Adenosine A2a receptor (P29274 whole entry): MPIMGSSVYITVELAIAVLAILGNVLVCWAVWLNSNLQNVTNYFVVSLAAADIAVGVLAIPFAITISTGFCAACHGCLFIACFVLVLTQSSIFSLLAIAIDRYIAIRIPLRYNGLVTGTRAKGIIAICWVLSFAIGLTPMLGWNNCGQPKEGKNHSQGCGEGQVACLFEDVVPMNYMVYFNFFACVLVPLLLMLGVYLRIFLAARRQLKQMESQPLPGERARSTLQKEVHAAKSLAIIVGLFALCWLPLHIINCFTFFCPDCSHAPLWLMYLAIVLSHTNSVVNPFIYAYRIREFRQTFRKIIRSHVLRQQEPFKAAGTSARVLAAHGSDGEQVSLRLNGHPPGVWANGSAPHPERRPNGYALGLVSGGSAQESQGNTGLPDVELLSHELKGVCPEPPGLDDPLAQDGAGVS
Sequence of human Adenosine A3 receptor (P0DMS8 whole entry): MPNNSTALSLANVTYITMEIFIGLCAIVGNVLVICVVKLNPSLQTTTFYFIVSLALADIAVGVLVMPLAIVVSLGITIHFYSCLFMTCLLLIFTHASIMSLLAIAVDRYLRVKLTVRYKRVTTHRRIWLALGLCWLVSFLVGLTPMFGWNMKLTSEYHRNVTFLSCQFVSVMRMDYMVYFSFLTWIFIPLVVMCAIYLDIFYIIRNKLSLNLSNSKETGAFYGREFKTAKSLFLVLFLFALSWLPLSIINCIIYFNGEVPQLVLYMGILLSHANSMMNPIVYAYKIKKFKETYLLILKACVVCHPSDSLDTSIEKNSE
Sequence of human Adenosine A2b receptor (P29275 whole entry): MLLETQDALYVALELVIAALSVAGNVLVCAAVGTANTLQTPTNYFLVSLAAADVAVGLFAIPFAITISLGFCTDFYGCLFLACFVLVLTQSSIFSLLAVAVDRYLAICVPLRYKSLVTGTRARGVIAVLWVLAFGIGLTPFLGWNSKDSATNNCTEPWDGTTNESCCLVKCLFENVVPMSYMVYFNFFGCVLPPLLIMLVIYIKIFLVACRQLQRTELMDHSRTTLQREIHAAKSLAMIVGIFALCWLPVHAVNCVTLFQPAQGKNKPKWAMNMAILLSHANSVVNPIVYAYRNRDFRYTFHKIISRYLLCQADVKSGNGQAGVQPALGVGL
Sequence of human Adenosine A1 receptor (P30542 whole entry): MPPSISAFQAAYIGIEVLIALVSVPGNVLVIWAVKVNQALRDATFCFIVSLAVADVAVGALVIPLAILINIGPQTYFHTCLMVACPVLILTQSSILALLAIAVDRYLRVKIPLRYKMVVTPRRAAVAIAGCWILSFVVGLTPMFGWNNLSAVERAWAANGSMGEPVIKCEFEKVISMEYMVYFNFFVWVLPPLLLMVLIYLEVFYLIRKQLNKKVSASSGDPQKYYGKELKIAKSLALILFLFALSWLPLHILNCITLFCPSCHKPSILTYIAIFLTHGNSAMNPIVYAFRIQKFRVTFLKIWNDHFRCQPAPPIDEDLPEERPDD

Structure (SMILES) | Ki [1] [nM] | IC50 [2] [nM] | Ki [3] [nM] | Ki [4] [nM] | IC50 ([5]; Homo sapiens, Dendritic cell) [nM] | Ki [6] [nM] | Ki [4, 7] [nM] | IC50 [5] [nM]
Cc1cc(-c2sc(NC(=O)N3C[C@@H]4OCCN(C)[C@@H]4C3)nc2-c2cccc(C#N)c2)cc(C)n1 (racemic) [Example 6.98, rac-(4aR,7aS)-N-[4-(3-Cyanophenyl)-5-(2,6-dimethyl-4-pyridyl)thiazol-2-yl]-4-methyl-2,3,4a,5,7,7a-hexahydropyrrolo[3,4-b][1,4]oxazine-6-carboxamide] | 819 | 50 | 0.91 | 7 | 72 | – | – | –
Cc1cc(-c2sc(NC(=O)N3CC4(COC4)C3)nc2-c2cccc(C#N)c2)cc(C(C)O)n1 (racemic) [Example 12.3, N-[4-(3-Cyanophenyl)-5-[2-(1-hydroxyethyl)-6-methyl-4-pyridyl]thiazol-2-yl]-2-oxa-6-azaspiro[3.3]heptane-6-carboxamide] | 1810 | 20 | 0.44 | – | 31 | 27 | 5 | –
Cc1cc(-c2sc(NC(=O)N3CC4(COC4)C3)nc2-c2cccc(C#N)c2)cc([C@@H](C)O)n1 (single isomer, unassigned) [Example 12.3a, N-[4-(3-Cyanophenyl)-5-[2-[(1R)-1-hydroxyethyl]-6-methyl-4-pyridyl]thiazol-2-yl]-2-oxa-6-azaspiro[3.3]heptane-6-carboxamide or N-[4-(3-cyanophenyl)-5-[2-[(1S)-1-hydroxyethyl]-6-methyl-4-pyridyl]thiazol-2-yl]-2-oxa-6-azaspiro[3.3]heptane-6-carboxamide] | 1090 | 10 | 0.18 | – | – | 23 | 2.6 | 16
Cc1cc(-c2sc(NC(=O)N3CC4(COC4)C3)nc2-c2cccc(C#N)c2)cc(C(F)F)n1 [Example 6.97, N-[4-(3-Cyanophenyl)-5-[2-(difluoromethyl)-6-methyl-4-pyridyl]thiazol-2-yl]-2-oxa-6-azaspiro[3.3]heptane-6-carboxamide] | 250 | 50 | 0.23 | – | 13 | 17 | 1.1 | –
Cc1cc(-c2sc(NC(=O)N3CC4(COC4)C3)nc2-c2cccc(C#N)c2)cc(Cl)n1 [Example 6.100, N-[5-(2-Chloro-6-methyl-4-pyridyl)-4-(3-cyanophenyl)thiazol-2-yl]-2-oxa-6-azaspiro[3.3]heptane-6-carboxamide] | 549 | – | 0.16 | – | 10 | 25 | 0.6 | –
[2H]C([2H])([2H])c1cc(-c2sc(NC(=O)N3CC4(COC4)C3)nc2-c2cccc(C#N)c2)cc(C([2H])([2H])[2H])n1 [Example 6.104, N-[5-[2,6-Bis(trideuteriomethyl)-4-pyridyl]-4-(3-cyanophenyl)thiazol-2-yl]-2-oxa-6-azaspiro[3.3]heptane-6-carboxamide] | 564 | – | 0.2 | – | 12 | 31 | 1 | –
Cc1cc(-c2sc(NC(=O)N3CC4(COC4)C3)nc2-c2cccc(C#N)c2)c(F)c(C)n1 [Example 6.105, N-[4-(3-Cyanophenyl)-5-(3-fluoro-2,6-dimethyl-4-pyridyl)thiazol-2-yl]-2-oxa-6-azaspiro[3.3]heptane-6-carboxamide] | 368 | – | 1.27 | – | 4 | 71 | 1.3 | –
Cc1cc(-c2sc(NC(=O)N3CCC4(CNCCO4)C3)nc2-c2cccc(C#N)c2)cc(C(F)F)n1 (stereo not shown) [Example 6.108, N-[4-(3-Cyanophenyl)-5-[2-(difluoromethyl)-6-methyl-4-pyridyl]thiazol-2-yl]-6-oxa-2,9-diazaspiro[4.5]decane-2-carboxamide] | 145 | – | 0.59 | – | 62 | 34 | 0.9 | –
Cc1cc(-c2sc(NC(=O)N3CCC(C)(C#N)CC3)nc2-c2cccc(C#N)c2)cc(C(C)(C)O)n1 [Example 12, 4-Cyano-N-[4-(3-cyanophenyl)-5-[2-(1-hydroxy-1-methyl-ethyl)-6-methyl-4-pyridyl]thiazol-2-yl]-4-methyl-piperidine-1-carboxamide] | 930 | – | 0.16 | – | 73 | 6 | 3.1 | –
Cc1cc(-c2sc(NC(=O)N3CCC4(CNCCO4)C3)nc2-c2cccc(C#N)c2)cc(C)n1 (stereo not shown) [Example 13.12, N-[4-(3-Cyanophenyl)-5-(2,6-dimethyl-4-pyridyl)thiazol-2-yl]-6-oxa-2,9-diazaspiro[4.5]decane-2-carboxamide] | 426 | 70 | 0.84 | – | 73 | 41 | 4.6 | –
Cc1cc(-c2sc(NC(=O)N3CC4(COC4)C3)nc2-c2cccc(C#N)c2)cc(C2COC2)n1 [Example 16.4] | 1710 | – | 0.13 | – | 36 | 12 | 3.3 | –
CCc1cc(-c2sc(NC(=O)N3CC4(COC4)C3)nc2-c2cccc(C#N)c2)cc(C)n1 [Example 16.9] | 350 | – | 0.1 | – | 18 | 9 | 0.8 | –
COCc1cc(-c2sc(NC(=O)N3CC4(COC4)C3)nc2-c2cccc(C#N)c2)cc(C)n1 [Example 21, N-[4-(3-Cyanophenyl)-5-[2-(methoxymethyl)-6-methyl-4-pyridyl]thiazol-2-yl]-2-oxa-6-azaspiro[3.3]heptane-6-carboxamide] | 1560 | 20 | 0.21 | – | 19 | 29 | 3.9 | –
CC(C)(O)c1cc(-c2sc(NC(=O)N3CC4(COC4)C3)nc2-c2cccc(C#N)c2)cc(Cl)n1 [Example 23, N-[5-[2-Chloro-6-(1-hydroxy-1-methyl-ethyl)-4-pyridyl]-4-(3-cyanophenyl)thiazol-2-yl]-2-oxa-6-azaspiro[3.3]heptane-6-carboxamide] | 1840 | 20 | 0.16 | – | 182 | 9 | 5.7 | –
N#Cc1cccc(-c2nc(NC(=O)N3CC4(COC4)C3)sc2-c2cc(CO)nc(C(F)(F)F)c2)c1 [Example 26, N-[4-(3-Cyanophenyl)-5-[2-(hydroxymethyl)-6-(trifluoromethyl)-4-pyridyl]thiazol-2-yl]-2-oxa-6-azaspiro[3.3]heptane-6-carboxamide] | 456 | 50 | 0.24 | – | 17 | 38 | 1.2 | –
Cc1cc(-c2sc(NC(=O)N3CC[C@@](C)(C#N)C3)nc2-c2cccc(C#N)c2)cc(C)n1 [Example 27a, (3R)-3-Cyano-N-[4-(3-cyanophenyl)-5-(2,6-dimethyl-4-pyridyl)thiazol-2-yl]-3-methyl-pyrrolidine-1-carboxamide] | 313 | 80 | 0.54 | – | 10 | 37 | 1.2 | –

— patent publication US20230293517A1, “ANTAGONIST COMPOUNDS” (AdoRx Therapeutics Limited, priority 2020, published 2023)
